Data set [1] is described as follows: pH measurement of saturated basic salts in water. Format: physicochemical. The conditions noted are these: excess basic salt suspended in water, 37° C., 7 days. On the procedure:
The suspension was then incubated at 37° C. for 7 days. The pH of the supernatant was determined with a Corning 430 pH meter (Corning Inc., NY).

Data set [2] in a line: pH of saturated basic salt suspension after addition of 1 N HCl. Format: physicochemical. The conditions noted are these: acid added to the saturated suspension with excess salt, 37° C., 3 days. The text has this:
The difference of the neutralization effect from the salts is also reflected in the different water contents of their PLGA devices.

Data set [3] addresses T1, BSA (Bos taurus, UniProt P02769).
T1 construct: purchased Sigma Chemical Co. (St. Louis, Mo.) A-3059
Nature of the data set: BSA release and aggregation in PLGA millicylinders incubated in PBST at 37° C. It is filed as physicochemical, bovine. On the procedure: A solvent extrusion method similar to that used previously by our group for intraocular implants was used to prepare the PLGA cylinders with a diameter on the millimeter scale, which we term millicylinders. Briefly, a uniform suspension of sieved protein powder (<90 μm) with or without basic salt in 50% (w/w) acetone-PLGA 50/50 solution was loaded in a syringe and extruded into a silicone tubing (I.D. 0.8 mm) at about 0.1 ml/min. The solvent extruded suspension was dried at room temperature for 24 h and then dried in a vacuum oven at 45° C. for another 24 h before testing. The protein loading was calculated as the percentage of amount of BSA versus the total weight of mixture (i.e., protein, polymer, and salt).
Release of protein was carried out in PBST (which consists of PBS (7.74 mM Na2HPO4, 2.26 mM NaH2O4, 137 mM NaCl, and 3 mM KCl, pH 7.4), and 0.02% w/v Tween® 80) at 37° C. under perfect sink conditions. Millicylinders (10×0.8 mm, 5-10 mg or microspheres (about 20 mg) were placed in I ml of the release medium and the medium was replaced at each time point. The protein content was determined by using Coornassie plus protein assay reagent, which is also compatible with denaturing agents (e.g., 6 M urea) and reducing agents (e.g., 10 mM DTT).
Protein stability was assessed by the percentage of water insoluble non-covalent BSA aggregates generated within the implants versus the initial encapsulated protein. Protein stability within PLGA implants was analyzed as follows: First, millicylinders with a length of 1 cm were incubated under 80% and 96% relative humidity (RH) at 37° C. for 21 days. Then, the polymer was dissolved in acetone and centrifuged to spin down the protein. The remaining protein pellet was washed three times with acetone and then air-dried. The final protein pellet was analyzed as in Analysis of the Protein Extracted from PLGA Implants. The protein remaining in PLGA implants after release in PBST at 37° C. for 28 days was also extracted similarly and analyzed as above.
The BSA pellet extracted from PLGA implants was first reconstituted in PBST and incubated at 37° C. overnight to determine the soluble protein fraction remaining in the polymer. Any remaining aggregates were collected by centrifugation again, and brought up in the denaturing solvent (PBST/6 M urea/1 mM EDTA) and incubated at 37° C. for 30 mm to dissolve non-covalent bonded BSA aggregates. Then, any final undissolved BSA aggregates were collected again and dissolved in the reducing solvent (the denaturing solvent plus 10 mM DTT) to dissolve any disulfide-bonded aggregates.
For quantitation of soluble BSA, a modified Bradford assay was used as follows: 10 μl of standard or sample in PBST was added to 250 μl of Coomassle reagent/well on a 96-well plate and then the plate was read at 595 nm using a Dynex MRX microplate reader (Dynex Technology, Inc., Chantilly, Va.). The concentration range of the standard curve was 50 to 1000 μg/ml. For quantitation of non-covalent and covalent BSA aggregates, the solvents used for preparation of standards and samples were 6 M urea and 6 M urea/10 mM DTT, respectively.
The solvent-extruded suspension was dried at room temperature (24 h) and then dried in a vacuum oven at 45° C. (24 h). For preparation of bFGF millicylinders, bFGF was combined with heparin, sucrose and BSA additives at a weight ratio (additive bFGF) of 1, 180, and 1000, respectively, in 0.5 mM EDTA and 10 mM sodium phosphate buffer (pH 7.4). The solution was lyophilized for 2 days at room temperature using a Labconco Freeze Dry System (Kansas City, Mo.) to a fine powder with 4% moisture (determined by a Karl Fisher Titrator (Model DL 18, Mettler-Toledo Inc., NJ)) and sieved before suspension in PLGA-acetone and extrusion. For preparation of […] millicylinders, solutions of BMP-2 combined with BSA or gum arabic (Sigma, St. Louis, Mo.) were similarly lyophilized and sieved. The millicylinders; were prepared in the same way as for BSA/PLGA millicylinders. […]

The target of data set [4] is T1, BSA. In words: BSA release and aggregation in W/O/W PLGA microspheres in PBST at 37° C. Format: physicochemical, bovine.
The next data set deals with Balb/c 3T3 fibroblasts. Nature of the data set: Bioassay for bFGF, cell proliferation (3H-thymidine incorporation). It is filed as cell-based. The following applies: bFGF from Mg(OH)2/BSA/heparin PLGA millicylinders, release and residual fraction. Here is the method: The biological activity of bFGF was determined by a cell proliferation assay (20). Balb/c 3T3 fibroblasts (25,000/well, CCL-163, ATCQ in Dulbecco's modified Eagle's medium (DMEM) containing 10% bovine calf serum, […] were seeded (200 μl/well) on 96-well plates. The cells were grown to confluence for one week without changing the medium. On day 7, bFGF samples or standards (10 μl) in the release medium were added and followed 20 h later by addition of 1 μCi of 3H-thymidine (6.7 Ci/mmol, DuPont/NEN® Research Products, Boston, Mass.) per well. After another 6-8 h, the cells were collected on filter paper by using a PHD TM cell harvester (Cambridge Technology Inc.). The harvested cells were resuspended in 3 ml of scintillation cocktail 3a7OB (Research Products International Corp., IL) and counted (Beckman LS 1701 scintillation counter).
In general terms: Incorporation of labelled thymidine or its analogues reports DNA synthesis.

The test system of the next data set is nude mice. Nature of the data set: In vivo angiogenesis of subcutaneously implanted bFGF devices. The conditions noted are these: BSA/Mg(OH)2-containing PLGA formulation implanted subcutaneously, data not shown. The text has this:
In both cases, a controlled release of protein was observed over 28 days (data not shown) resulting in a recovery (released+soluble residue fraction) of >80% (Table 3). In contrast, when the base was removed from the formulation (18% gum arabic), only 30% protein was recovered by the immunoassay. Therefore, the stability characteristic of BMP-2 in PLGA millicylinders was very similar to that of bFGF (although additional stabilizers were used for bFGF) with and without the addition of the basic additive. For both growth factors, in the absence of basic additive, the protein was released mostly on the first day and only a small amount of protein could be recovered from the polymer after 28 days release. In the presence of the basic salt, both proteins were continuously released with >80% recoverable in the 28-day experiment. Moreover, the in vivo biological activities (angiogenesis in nude mice for the bFGF and osteogenesis in rats for the BMP-2) of the BSA/Mg(OH)2-containing formulations were also confirmed when the devices were implanted subcutaneously (data not shown).

The conditions of data set [5]: reference (31); cited from earlier work.
Data set [6] deals with T1, BSA. In words: Simulation of BSA instability in the polymer microclimate. The following applies: Simulated: lyophilized BSA at pH 2 under 86% R.H. at 37° C. It is filed as physicochemical, bovine. Here is the method: Three experiments were designed to simulate the potential deleterious conditions in PLGA devices. […] At various times, the protein was reconstituted in PBST and examined for the type of aggregates as described above. To examine the effect of water, water was directly added to lyophilized BSA at pH 2, sealed and then incubated at 37° C. for 1 week, and analyzed as above (16). […] Loss of BSA content from solution was used to determine the extent of BSA adsorption to the polymer.

In a further data set the target is tPA (Homo sapiens, UniProt P00750). Nature of the data set: tPA release from PLGA millicylinders by activity analysis. Format: physicochemical. Here is the method: Here, by using this rationale, tPA was successfully encapsulated into PLGA implants. tPA, a protein with a MW of ˜60 K Da is a tissue type endogenous serine proteaese involved in thrombi dissolution. The FDA has approved the use of recombinant tPA in the treatment of myocardial infarction. Controlled release systems for local delivery was developed by using hydrogel to control wound healing. A multi-drug controlled release implant with tPA encapsulated was also tested for the intraocular management of proliferative vitroretinopahty (PVR). […] Arginine hydrochloride and BSA were added in the release medium to improve the stability of released tPA. The release profile and active residue of tPA after release was evaluated by activity analysis. […] As far as is known, only very few protein formulations have shown continuous and complete release over one month period without losing activity.

Data set [7] can be described thus: VCR and VBL stability and release in PLGA microspheres by HPLC. Format: physicochemical. On the procedure: All other reagents and solvents were of analytical grade or purer and purchased from commercial suppliers. Microspheres Preparation Microspheres were prepared by a standard oil-in-oil emulsion-solvent extraction method (17). […] The resulting solution or suspension was added drop-wise to 25 ml of oil (95% cottonseed oil and 5% Span 85 emulsifier) stirred at 500 rpm and room temperature. After 2.5 h of microsphere hardening. 40 ml of petroleum ether (bp: 50 to 100° C.) were added to the emulsion to extract CAN. The emulsion was stirred for additional 15 min, the particles were collected by filtration, and washed 3 times with petroleum ether. The hardened microspheres were flash-frozen with liquid nitrogen and lyophilized with a Labconco Freezone 6 system for 1 day.
The HPLC system consisted of the following: a 510 pump, a 717 Plus autosampler, and a 486 UV detector (waters, Milford, Mass.). […] The mobile phase was composed of aqueous solution of sodium phosphate (10 mM) and methanol 40:60 (v/v) (pH 7.0). For UV detection, the wavelength was set to 298 nm.
Drug release from microspheres was carried out in PBS (127 mM NaCl, 3 mM KCl, 8 mM Na2HPO4, 1 mM KH2PO4, pH 7.4) containing Tween 80 (0.02% w/w/) (PBST) at 37° C. under perfect sink conditions. […] Microspheres were weighed and dissolved in a 50% (v/v) ACN water solution. The precipitated polymer and salts were spun down by brief centrifugation. An aliquot of the supernatant containing drug was removed and analyzed by HPLC.

The conditions of data set [8]: aqueous solution; cited from earlier work.

Structures can show the parent of a compound that is named as a salt.

The values below come from US6743446B2, “Methods for stabilizing biologically active agents encapsulated in biodegradable controlled-release polymers” (The Ohio State University Research Foundation, priority 1999, dated 2004).

T1 sequence (P02769 25-607): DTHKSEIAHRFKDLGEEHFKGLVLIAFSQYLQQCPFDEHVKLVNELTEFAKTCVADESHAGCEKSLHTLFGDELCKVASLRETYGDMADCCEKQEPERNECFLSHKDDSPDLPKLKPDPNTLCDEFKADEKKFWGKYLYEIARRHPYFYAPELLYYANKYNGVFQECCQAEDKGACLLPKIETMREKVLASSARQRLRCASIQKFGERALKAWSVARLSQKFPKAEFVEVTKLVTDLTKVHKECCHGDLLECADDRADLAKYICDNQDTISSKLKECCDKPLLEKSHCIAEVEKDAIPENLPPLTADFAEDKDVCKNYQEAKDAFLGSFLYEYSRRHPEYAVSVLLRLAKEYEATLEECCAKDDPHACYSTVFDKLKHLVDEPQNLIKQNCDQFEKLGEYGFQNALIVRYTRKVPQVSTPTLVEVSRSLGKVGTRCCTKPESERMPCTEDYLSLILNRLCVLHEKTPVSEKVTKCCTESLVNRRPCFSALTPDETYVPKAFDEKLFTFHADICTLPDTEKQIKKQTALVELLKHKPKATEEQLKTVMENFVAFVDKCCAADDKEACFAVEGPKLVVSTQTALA
Chain of tPA (P00750 36-562): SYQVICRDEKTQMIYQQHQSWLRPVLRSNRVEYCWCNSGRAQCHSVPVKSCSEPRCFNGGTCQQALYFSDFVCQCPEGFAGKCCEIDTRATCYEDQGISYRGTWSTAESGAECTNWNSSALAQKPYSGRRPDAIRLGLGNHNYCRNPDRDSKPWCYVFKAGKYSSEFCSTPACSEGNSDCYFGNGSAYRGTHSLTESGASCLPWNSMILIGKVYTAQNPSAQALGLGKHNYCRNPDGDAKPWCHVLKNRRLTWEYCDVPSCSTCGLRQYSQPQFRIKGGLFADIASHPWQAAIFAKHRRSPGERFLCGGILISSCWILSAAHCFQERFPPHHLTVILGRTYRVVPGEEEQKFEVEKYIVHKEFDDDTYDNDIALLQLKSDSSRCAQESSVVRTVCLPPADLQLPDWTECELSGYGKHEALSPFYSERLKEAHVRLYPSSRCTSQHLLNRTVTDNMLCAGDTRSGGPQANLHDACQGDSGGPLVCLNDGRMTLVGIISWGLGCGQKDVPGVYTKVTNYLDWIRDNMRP

On to `O=C([O-])[O-].[Mg+2]` [MgCO3], for which the “pH of saturated solution” value in [1] amounted to 9.75. Moreover, the “pH after addition of 100 μl of 1 N HCl” value in [2] was found to be 9.01. Besides, at BSA [3] (PLGA millicylinders), the “stabilization of BSA” value was “stabilized BSA much better than the Mg(OH)2”. In addition, the Released result on BSA [4] (3% BSA/PLGA50/50 (0.20 dl/g) microspheres, 51-day release in PBST at 37° C.) is “more than 50%”. Moreover, the “BSA release after the first day burst over 28 days” value on BSA [4] (4% BSA/PLGA50/50 (0.64 dl/g) W/O/W microspheres with basic salt) was “up to 10%”. For the same compound, the burst on BSA [4] (BSA/PLGA (0.20 dl/g) microspheres, data not shown) is given as 32%.

Take “bFGF: recombinant human basic fibroblast growth factor”: the “bFGF bioactive over the entire release interval” value in the data set with Balb/c 3T3 fibroblasts is 65-85%. For the same compound, the “in vivo biological activity, angiogenesis” value in the data set with nude mice is “confirmed”. Also, in data set [5], the “in vivo serum half-life” value is listed as under 3 min.

Regarding Bovine serum albumin [BSA], the “initially encapsulated BSA that formed non-covalent aggregates” value with BSA [3] (15% BSA/PLGA implants without base, 2 weeks release in PBST at 37° C., previous results) was “more than 60%”. Further, the “Aggregates soluble in denaturing solvent” value is given as over 98% with BSA [3] (Encapsulated: 15% BSA in PLGA millicylinders in PBST at 37° C., PBST with 6M urea, 1 mM EDTA) and over 94% with BSA [6] (PBST with 6M urea, 1 mM EDTA). The Peptide fragmentation is 25, 40, and 55 kDa in the data set with BSA [3] (Encapsulated: 15% BSA in PLGA millicylinders in PBST at 37° C., SDS-PAGE); 25, 40, and 55 kDa with BSA [6] (SDS-PAGE). Besides, the “Time to 50% aggregation” value in the data set with BSA [3] (Encapsulated: 15% BSA in PLGA millicylinders incubated in PBST at 37° C.) was 12 days; in the data set with BSA [6] it was 7 days. For the same compound, the “protein released in 1 day” value at BSA [3] (PLGA millicylinders, 20% BSA loading without the base) is on record as over 90%. The non-covalent aggregates with BSA [4] (BSA in PLGA microspheres by solvent evaporation, no base) was 25-75%. This compound returned a disulfide-bonded aggregates in the data set with BSA [4] (BSA in PLGA microspheres, some control experiments) of under 5%.

Turning to “tPA: tissue type endogenous serine protease, encapsulated as 10% tPA powder in PLGA millicylinders”, the “one month release of tPA” value with tPA (10% tPA powder in PLGA millicylinders with 3% Mg(OH)2) is recorded as 98.0±0.2%; with tPA (10% tPA powder in PLGA millicylinders without Mg(OH)2) it was 77.1±2.6%.

Turning to `CC[C@]1(O)C[C@H]2CN(CCc3c([nH]c4ccccc34)[C@@](C(=O)OC)(c3cc4c(cc3OC)N(C=O)[C@H]3[C@@](O)(C(=O)OC)[C@H](OC(C)=O)[C@]5(CC)C=CCN6CC[C@]43[C@@H]65)C2)C1` [VCR, Vincristine sulfate], the “stability of encapsulated drug” value in data set [7] (PLGA (50% D,L lactide content) microspheres) is listed as “becomes unstable”. The drug remaining intact worked out at 97% in [7] (VCR PLGA microspheres with ZnCO3, after 3 weeks) and 92% in data set [7] (VCR PLGA microspheres with ZnCO3, after 4 weeks). In addition, in data set [7] (VCR in PLGA microspheres without base, 14 days incubation at 37° C.), the “drug remained in its native form” value worked out at 23%. The “pH of maximum stability” value in [8] was about 4.5.
